Results: ChEMBL document CHEMBL1201862, “PubChem BioAssay data set” (2004)
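A five-concentration, 48-hour dose response in 96-well plates underlies each endpoint, interpolated linearly between surrounding concentrations. Abbreviation: GI50, concentration required for 50% inhibition of growth.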 Active and inactive are the calls of the source. Rule as the data show it: active = GI50 up to about 1.1 µM and inactive = higher. Peptide text beside a SMILES is read from it. * marks the point of attachment. Boc = CC(C)(C)OC(=O)*

Tests used:
Experiment in all cases: NCI tumour cell line growth inhibition, 48 h
OVCAR-4 = test system: OVCAR-4
SF-268 = test system: SF-268
SR = test system: SR
SW-620 = test system: SW-620
OVCAR-3 = test system: OVCAR-3
SK-MEL-28 = test system: SK-MEL-28
NCI-H522 = test system: NCI-H522
TK-10 = test system: TK-10
SF-539 = test system: SF-539
SF-295 = test system: SF-295
RXF 393 = test system: RXF 393
SNB-19 = test system: SNB-19
SK-OV-3 = test system: SK-OV-3
IGROV-1 = test system: IGROV-1
CCRF-CEM = test system: CCRF-CEM
K562 = test system: K562
SNB-75 = test system: SNB-75
NCI-H226 = test system: NCI-H226
MDA-MB-435 = test system: MDA-MB-435
PC-3 = test system: PC-3

Measured: GI50

COC(=O)C(Cc1ccccc1)NC(=O)C(CS)NC(=O)OC(C)(C)C (stereo not drawn) (Boc-Cys-Phe-OMe; configuration not given here)
inactive: OVCAR-4 32.1 µM | SF-268 > 100 µM | SR 27.2 µM | SW-620 53.7 µM | OVCAR-3 88.1 µM | SK-MEL-28 > 100 µM | NCI-H522 > 100 µM | TK-10 > 100 µM | SF-539 > 100 µM | SF-295 > 100 µM | RXF 393 26 µM | SNB-19 > 100 µM | SK-OV-3 > 100 µM | IGROV-1 > 100 µM | CCRF-CEM 21.8 µM | K562 38.2 µM | SNB-75 > 100 µM | NCI-H226 > 100 µM | MDA-MB-435 > 100 µM | PC-3 > 100 µM

Cc1cccc2c1CC(C1OC(=O)c3c(C)cccc31)C2=O (stereo not given)
inactive: OVCAR-4 > 100 µM | SF-268 > 100 µM | SR > 100 µM | SW-620 > 100 µM | OVCAR-3 > 100 µM | SK-MEL-28 > 100 µM | NCI-H522 15.7 µM | TK-10 > 100 µM | SF-539 > 100 µM | SF-295 > 100 µM | RXF 393 > 100 µM | SNB-19 > 100 µM | SK-OV-3 > 100 µM | IGROV-1 > 100 µM | CCRF-CEM > 100 µM | K562 > 100 µM | SNB-75 > 100 µM | NCI-H226 > 100 µM | MDA-MB-435 > 100 µM | PC-3 > 100 µM

CC(C)(Oc1ccc(-c2cccc3ccccc23)cc1)C(=O)O
inactive: OVCAR-4 > 100 µM | SF-268 > 100 µM | SR > 100 µM | SW-620 > 100 µM | OVCAR-3 > 100 µM | SK-MEL-28 > 100 µM | NCI-H522 > 100 µM | TK-10 > 100 µM | SF-539 > 100 µM | SF-295 60.4 µM | RXF 393 > 100 µM | SNB-19 > 100 µM | SK-OV-3 > 100 µM | IGROV-1 > 100 µM | CCRF-CEM 6.22 µM | K562 1.3 µM | SNB-75 > 100 µM | NCI-H226 > 100 µM | MDA-MB-435 > 100 µM | PC-3 > 100 µM
